Columns and labels:
Plasmodium falciparum [1] = assay: Antimalarial activity against chloroquine-sensitive Plasmodium falciparum D10 after 72 hrs by lactate dehydrogenase assay; assay type: functional
Plasmodium falciparum [2] = assay: Antimalarial activity against chloroquine-resistant Plasmodium falciparum W2 after 72 hrs by lactate dehydrogenase assay; assay type: functional, organism-based; settings: W2, 72 h
[3] = Plasmodium falciparum, D10, 72 h, read-out: IC50

Row | Structure (SMILES) | IC50 (Plasmodium falciparum [1]; [3]) [µM] | IC50 (Plasmodium falciparum [2]) [µM] | IC50 (Plasmodium falciparum [1])
1 | CC/C=C/[C@H](CC)C[C@]1(CC)C=C(CC)[C@H](CC(=O)OC)OO1 | 3.89 | 2.91 | 
2 | CCCC[C@H](CC)C[C@]1(CC)C=C(CC)[C@H](CC(=O)OC)OO1 | 4.05 | 2.7 | 
3 | CCCC[C@H](C)C[C@]1(CC)C=C(CC)[C@H](CC(=O)OC)OO1 | 1.77 | 1.56 | 
4 | CCCC[C@H](CC)C[C@@]1(CC)C[C@H](CC)[C@H](CC(=O)OC)OO1 | 6.18 | 4.98 | 
5 | CCCC[C@H](CC)C[C@@]1(CC)C[C@H](CC)[C@@H](CC(=O)OC)OO1 |  | 11.4 | Not Active
6 | CCCCC(C)C[C@H](CC)C[C@@]1(C)C[C@H](CC)[C@@H](CC(=O)OC)OO1 (stereo not given in full) | 5.12 | 4.1 | 
7 | CCCC[C@H](CC)C[C@@]1(C)C[C@@H](CC)[C@@H](CC(=O)OC)OO1 | 0.9 | 0.43 | 
8 | C[C@@H]1CC[C@H]2[C@@H](C)C(=O)O[C@@H]3O[C@@]4(C)CC[C@@H]1[C@]32OO4 [ARTEMISININ] |  | 0.009 | 

— ChEMBL document CHEMBL3352710, “Endoperoxide polyketides from a Chinese Plakortis simplex: further evidence of the impact of stereochemistry on antimalarial activity of simple 1,2-dioxanes” (Bioorg Med Chem, 2014)
